One assay has as its target T1, HiBit-BRM fusion protein (Homo sapiens, UniProt P51531).
T1 construct: expressed in transfected cells
Briefly: HiBiT-BRM cell-based degradation assay (Nano-Glo HiBiT lytic detection, 24 h). The conditions noted are these: HeLa cell line expressing HiBiT-BRM; for DC50: read-out: BRM HiBit Degradation IC50. Put shortly:
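Luminescence from LgBiT complementation quantified remaining HiBiT-BRM in stably expressing HeLa cells after 24 h compound exposure (top final dose 30 μM, 3-fold, 10 points, duplicate). Degradation expressed as percent relative to DMSO and a 2 μM reference degrader.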
A general note: HiBiT is a short tag that completes a luciferase, so light tracks the accessible tagged protein.

For assay [1], the target named is T2, HiBit-BRG1 fusion protein (Homo sapiens, UniProt P51532).
T2 construct: expressed in transfected cells
T2 sequence (P51532 whole entry, the tested form may be a part): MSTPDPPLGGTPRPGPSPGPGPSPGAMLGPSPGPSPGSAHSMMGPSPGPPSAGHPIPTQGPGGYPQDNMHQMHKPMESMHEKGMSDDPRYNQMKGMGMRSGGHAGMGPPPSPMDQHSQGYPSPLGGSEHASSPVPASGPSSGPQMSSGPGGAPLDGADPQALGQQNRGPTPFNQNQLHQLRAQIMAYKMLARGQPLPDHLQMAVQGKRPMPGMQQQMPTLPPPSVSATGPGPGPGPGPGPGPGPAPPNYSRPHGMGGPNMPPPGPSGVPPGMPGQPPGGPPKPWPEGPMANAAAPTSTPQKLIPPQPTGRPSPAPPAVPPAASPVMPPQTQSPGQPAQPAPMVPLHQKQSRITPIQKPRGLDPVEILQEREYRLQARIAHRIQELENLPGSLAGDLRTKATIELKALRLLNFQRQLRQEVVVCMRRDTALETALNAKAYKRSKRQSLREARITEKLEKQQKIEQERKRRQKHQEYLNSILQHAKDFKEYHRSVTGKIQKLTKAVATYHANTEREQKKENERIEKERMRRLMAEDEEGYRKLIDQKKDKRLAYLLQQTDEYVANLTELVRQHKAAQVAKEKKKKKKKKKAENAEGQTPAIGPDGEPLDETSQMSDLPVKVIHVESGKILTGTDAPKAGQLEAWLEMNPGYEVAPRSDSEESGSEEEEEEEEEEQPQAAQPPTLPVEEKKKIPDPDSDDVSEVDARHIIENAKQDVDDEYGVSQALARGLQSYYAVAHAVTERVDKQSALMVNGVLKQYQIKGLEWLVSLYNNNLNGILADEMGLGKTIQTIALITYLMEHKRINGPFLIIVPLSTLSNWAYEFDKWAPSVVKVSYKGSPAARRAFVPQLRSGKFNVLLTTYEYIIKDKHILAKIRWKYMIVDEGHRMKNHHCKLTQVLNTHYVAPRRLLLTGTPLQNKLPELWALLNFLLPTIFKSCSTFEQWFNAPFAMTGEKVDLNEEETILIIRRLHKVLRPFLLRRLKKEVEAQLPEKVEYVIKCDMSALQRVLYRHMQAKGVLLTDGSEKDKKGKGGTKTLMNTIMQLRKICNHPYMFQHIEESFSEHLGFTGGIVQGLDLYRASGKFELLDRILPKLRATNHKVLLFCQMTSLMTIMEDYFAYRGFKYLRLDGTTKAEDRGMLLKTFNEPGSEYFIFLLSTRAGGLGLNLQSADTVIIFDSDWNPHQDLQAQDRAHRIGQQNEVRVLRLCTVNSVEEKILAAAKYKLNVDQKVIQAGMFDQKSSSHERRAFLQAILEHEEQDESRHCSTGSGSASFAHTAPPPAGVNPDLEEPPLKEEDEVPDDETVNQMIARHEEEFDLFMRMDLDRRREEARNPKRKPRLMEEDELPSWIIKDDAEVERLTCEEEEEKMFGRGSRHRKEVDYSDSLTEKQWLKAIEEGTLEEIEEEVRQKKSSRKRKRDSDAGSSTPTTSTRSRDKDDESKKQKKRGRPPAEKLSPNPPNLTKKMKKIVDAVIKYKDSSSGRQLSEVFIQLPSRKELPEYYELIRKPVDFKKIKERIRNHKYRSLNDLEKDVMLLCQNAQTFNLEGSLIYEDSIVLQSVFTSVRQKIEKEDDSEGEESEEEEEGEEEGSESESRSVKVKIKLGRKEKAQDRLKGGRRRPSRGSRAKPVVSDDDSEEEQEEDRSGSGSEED
Briefly: HiBiT-BRG1 cell-based degradation assay (Nano-Glo HiBiT lytic detection, 24 h). The conditions noted are these: HeLa cell line expressing HiBit-BRG1 and LgBit; for Dmax: read-out: BRG1 HiBit Degradation Maximum (%); for DC50: read-out: BRMG1 HiBit Degradation IC50. Put shortly: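 Luminescence from HiBiT/LgBiT complementation after lytic detection reagent was read following 24 h compound exposure of HeLa cells stably carrying HiBiT-BRG1 plus LgBiT (5000 cells/well). Signal scaled to % degradation using DMSO-treated cells as 0% and cells given 2 μM known BRM/BRG1 degrader as 100%.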

Some results are limits rather than exact numbers.

T1 sequence (P51531 whole entry, the tested form may be a part): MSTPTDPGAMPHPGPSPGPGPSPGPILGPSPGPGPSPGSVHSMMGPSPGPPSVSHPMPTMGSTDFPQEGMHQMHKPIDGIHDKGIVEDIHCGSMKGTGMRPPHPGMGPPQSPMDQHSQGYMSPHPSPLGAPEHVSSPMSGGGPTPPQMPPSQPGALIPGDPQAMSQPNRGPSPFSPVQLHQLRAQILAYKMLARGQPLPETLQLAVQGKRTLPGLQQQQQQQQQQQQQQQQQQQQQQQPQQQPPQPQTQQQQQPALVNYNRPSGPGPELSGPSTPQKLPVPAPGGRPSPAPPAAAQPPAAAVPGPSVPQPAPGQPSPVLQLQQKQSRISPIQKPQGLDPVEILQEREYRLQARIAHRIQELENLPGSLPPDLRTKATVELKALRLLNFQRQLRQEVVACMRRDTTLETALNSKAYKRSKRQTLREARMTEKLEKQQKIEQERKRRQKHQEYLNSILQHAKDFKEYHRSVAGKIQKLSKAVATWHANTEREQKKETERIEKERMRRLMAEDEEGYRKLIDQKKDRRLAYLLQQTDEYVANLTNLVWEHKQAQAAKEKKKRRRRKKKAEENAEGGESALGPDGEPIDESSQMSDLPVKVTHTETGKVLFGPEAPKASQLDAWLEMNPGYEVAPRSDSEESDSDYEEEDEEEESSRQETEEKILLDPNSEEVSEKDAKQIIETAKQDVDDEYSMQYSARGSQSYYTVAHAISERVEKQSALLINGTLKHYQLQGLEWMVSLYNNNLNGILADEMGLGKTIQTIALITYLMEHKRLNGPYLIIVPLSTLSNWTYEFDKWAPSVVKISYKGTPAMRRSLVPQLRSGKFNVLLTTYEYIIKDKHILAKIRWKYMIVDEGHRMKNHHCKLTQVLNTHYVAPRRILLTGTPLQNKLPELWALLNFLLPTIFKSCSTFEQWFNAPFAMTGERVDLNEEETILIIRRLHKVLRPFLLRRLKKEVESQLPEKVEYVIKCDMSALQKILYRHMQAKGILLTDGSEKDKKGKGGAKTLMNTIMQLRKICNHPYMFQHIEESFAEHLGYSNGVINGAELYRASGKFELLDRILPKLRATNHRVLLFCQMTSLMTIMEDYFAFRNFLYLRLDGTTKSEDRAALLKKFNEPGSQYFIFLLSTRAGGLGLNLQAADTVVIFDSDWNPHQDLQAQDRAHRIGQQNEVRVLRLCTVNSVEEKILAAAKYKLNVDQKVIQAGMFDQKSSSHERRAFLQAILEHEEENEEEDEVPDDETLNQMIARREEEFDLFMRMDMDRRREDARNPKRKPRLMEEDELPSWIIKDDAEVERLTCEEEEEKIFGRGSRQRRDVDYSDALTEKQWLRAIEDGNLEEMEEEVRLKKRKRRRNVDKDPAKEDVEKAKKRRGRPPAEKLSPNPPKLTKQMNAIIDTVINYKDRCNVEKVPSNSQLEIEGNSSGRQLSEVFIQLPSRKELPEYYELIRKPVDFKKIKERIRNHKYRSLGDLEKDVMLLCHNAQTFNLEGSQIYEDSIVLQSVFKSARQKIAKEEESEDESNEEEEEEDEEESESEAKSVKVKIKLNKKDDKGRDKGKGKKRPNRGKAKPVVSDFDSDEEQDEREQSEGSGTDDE

As for `Cc1ncsc1-c1ccc([C@H](C)NC(=O)[C@@H]2C[C@@H](O)CN2C(=O)[C@@H](c2cc(N3CC4(CC(c5cc6nnc(-c7ccccc7O)cc6n5C56CC(C5)C6)C4)C3)no2)C(C)C)cc1` [Compound 65, (2S,4R)-1-((R)-2-(3-(6-(5-(bicyclo[1.1.1]pentan-1-yl)-3-(2-hydroxyphenyl)-5H-pyrrolo[3,2-c]pyridazin-6-yl)-2-azaspiro[3.3]heptan-2-yl)isoxazol-5-yl)-3-methylbutanoyl)-4-hydroxy-N-((S)-1-(4-(4-methylthiazol-5-yl)phenyl)ethyl)pyrrolidine-2-carboxamide], on HiBit-BRM fusion protein, the “BRM HiBit Degradation Maximum (%)” value is reported as “A (“A” indicates maximum degradation ≥75%)” and the DC50 was less than 0.01 µM. In addition, the Dmax in assay [1] was less than 50%.
As for `Cc1ncsc1-c1ccc([C@H](C)NC(=O)[C@@H]2C[C@@H](O)CN2C(=O)[C@@H](c2cc(N3CC4(CC(c5cc6nnc(-c7ccccc7O)cc6n5C5(C)CC5)C4)C3)no2)C(C)C)cc1` [Compound 66, (2S,4R)-4-hydroxy-1-((R)-2-(3-(6-(3-(2-hydroxyphenyl)-5-(1-methylcyclopropyl)-5H-pyrrolo[3,2-c]pyridazin-6-yl)-2-azaspiro[3.3]heptan-2-yl)isoxazol-5-yl)-3-methylbutanoyl)-N-((S)-1-(4-(4-methylthiazol-5-yl)phenyl)ethyl)pyrrolidine-2-carboxamide], on HiBit-BRM fusion protein, the “BRM HiBit Degradation Maximum (%)” value is on record as “A (“A” indicates maximum degradation ≥75%)” and the DC50 is less than 0.01 µM. Moreover, in assay [1], the Dmax was more than 50% and the DC50 was more than 0.01 µM.
For `Cc1ncsc1-c1ccc([C@H](C)NC(=O)[C@@H]2C[C@@H](O)CN2C(=O)[C@@H](c2cc(N3CC4(CC(c5cc6nnc(-c7ccccc7O)cc6n5C)C4)C3)no2)C(C)C)cc1` [Compound 67, (2S,4R)-4-hydroxy-1-((R)-2-(3-(6-(3-(2-hydroxyphenyl)-5-methyl-5H-pyrrolo[3,2-c]pyridazin-6-yl)-2-azaspiro[3.3]heptan-2-yl)isoxazol-5-yl)-3-methylbutanoyl)-N-((S)-1-(4-(4-methylthiazol-5-yl)phenyl)ethyl)pyrrolidine-2-carboxamide] the same measures were “A (“A” indicates maximum degradation ≥75%)”, less than 0.01 µM, more than 50% and more than 0.01 µM.
As for `Cc1ncsc1-c1ccc([C@H](C)NC(=O)[C@@H]2C[C@@H](O)CN2C(=O)[C@@H](c2cc(N3CC4(CC(c5cc6nnc(-c7ccccc7O)cc6n5C5(CF)CC5)C4)C3)no2)C(C)C)cc1` [Compound 68, (2S,4R)-1-((R)-2-(3-(6-(5-(1-(fluoromethyl)cyclopropyl)-3-(2-hydroxyphenyl)-5H-pyrrolo[3,2-c]pyridazin-6-yl)-2-azaspiro[3.3]heptan-2-yl)isoxazol-5-yl)-3-methylbutanoyl)-4-hydroxy-N-((S)-1-(4-(4-methylthiazol-5-yl)phenyl)ethyl)pyrrolidine-2-carboxamide], on HiBit-BRM fusion protein, the “BRM HiBit Degradation Maximum (%)” value is listed as “A (“A” indicates maximum degradation ≥75%)” and the DC50 was less than 0.01 µM. For the same molecule, in assay [1], the Dmax was less than 50%.
With `Cc1ncsc1-c1ccc([C@H](C)NC(=O)[C@@H]2C[C@@H](O)CN2C(=O)[C@@H](c2cc(-c3cnc(N4CC[C@@H](c5cc6nnc(-c7cccc(Cl)c7O)cc6n5C5CC5)C4)nc3)no2)C(C)C)cc1` [Compound 69, (2S,4R)-1-((R)-2-(3-(2-((R)-3-(3-(3-chloro-2-hydroxyphenyl)-5-cyclopropyl-5H-pyrrolo[3,2-c]pyridazin-6-yl)pyrrolidin-1-yl)pyrimidin-5-yl)isoxazol-5-yl)-3-methylbutanoyl)-4-hydroxy-N-((S)-1-(4-(4-methylthiazol-5-yl)phenyl)ethyl)pyrrolidine-2-carboxamide], on HiBit-BRM fusion protein, the “BRM HiBit Degradation Maximum (%)” value is recorded as “A (“A” indicates maximum degradation ≥75%)” and the DC50 is less than 0.01 µM. In addition, the Dmax in assay [1] was less than 50%.
For `Cc1ncsc1-c1ccc([C@H](C)NC(=O)[C@@H]2C[C@@H](O)CN2C(=O)[C@@H](c2cc(-c3cnc(N4CC[C@@H](c5cc6nnc(-c7cc(F)cc(Cl)c7O)cc6n5C5CC5)C4)nc3)no2)C(C)C)cc1` [Compound 70, (2S,4R)-1-((R)-2-(3-(2-((R)-3-(3-(3-chloro-5-fluoro-2-hydroxyphenyl)-5-cyclopropyl-5H-pyrrolo[3,2-c]pyridazin-6-yl)pyrrolidin-1-yl)pyrimidin-5-yl)isoxazol-5-yl)-3-methylbutanoyl)-4-hydroxy-N-((S)-1-(4-(4-methylthiazol-5-yl)phenyl)ethyl)pyrrolidine-2-carboxamide] the same measures were “A (“A” indicates maximum degradation ≥75%)”, less than 0.01 µM and less than 50%.
For the molecule `Cc1ncsc1-c1ccc([C@H](C)NC(=O)[C@@H]2C[C@@H](O)CN2C(=O)[C@H](C(C)C)n2cc(-c3cnc(N4CC[C@@H](c5cc6nnc(-c7ccccc7O)cc6n5C5CC5)C4)nc3)nn2)cc1` [Compound 71, (2S,4R)-1-((S)-2-(4-(2-((R)-3-(5-cyclopropyl-3-(2-hydroxyphenyl)-5H-pyrrolo[3,2-c]pyridazin-6-yl)pyrrolidin-1-yl)pyrimidin-5-yl)-1H-1,2,3-triazol-1-yl)-3-methylbutanoyl)-4-hydroxy-N-((S)-1-(4-(4-methylthiazol-5-yl)phenyl)ethyl)pyrrolidine-2-carboxamide], on HiBit-BRM fusion protein, the “BRM HiBit Degradation Maximum (%)” value is “A (“A” indicates maximum degradation ≥75%)” and the DC50 was less than 0.01 µM. For the same molecule, in assay [1], the Dmax was more than 75% and the DC50 was less than 0.01 µM.
For the molecule `Cc1ncsc1-c1ccc([C@H](C)NC(=O)[C@@H]2C[C@@H](O)CN2C(=O)[C@@H](C(C)C)n2cc(-c3cnc(N4CC[C@@H](c5cc6nnc(-c7ccccc7O)cc6n5C5CC5)C4)nc3)nn2)cc1` [Compound 72, (2S,4R)-1-((R)-2-(4-(2-((R)-3-(5-cyclopropyl-3-(2-hydroxyphenyl)-5H-pyrrolo[3,2-c]pyridazin-6-yl)pyrrolidin-1-yl)pyrimidin-5-yl)-1H-1,2,3-triazol-1-yl)-3-methylbutanoyl)-4-hydroxy-N-((S)-1-(4-(4-methylthiazol-5-yl)phenyl)ethyl)pyrrolidine-2-carboxamide], on HiBit-BRM fusion protein, the “BRM HiBit Degradation Maximum (%)” value is “A (“A” indicates maximum degradation ≥75%)” and the DC50 was less than 0.01 µM. The Dmax in assay [1] was less than 50%.
As to `Cc1ncsc1-c1ccc([C@H](C)NC(=O)[C@@H]2C[C@@H](O)CN2C(=O)[C@@H](c2cc(-c3cnc(N4CC[C@H](c5cc6nnc(-c7cc(F)cc(Cl)c7O)cc6n5C5CC5)C4)nc3)no2)C(C)C)cc1` [Compound 73, (2S,4R)-1-((R)-2-(3-(2-((S)-3-(3-(3-chloro-5-fluoro-2-hydroxyphenyl)-5-cyclopropyl-5H-pyrrolo[3,2-c]pyridazin-6-yl)pyrrolidin-1-yl)pyrimidin-5-yl)isoxazol-5-yl)-3-methylbutanoyl)-4-hydroxy-N-((S)-1-(4-(4-methylthiazol-5-yl)phenyl)ethyl)pyrrolidine-2-carboxamide], at HiBit-BRM fusion protein, the “BRM HiBit Degradation Maximum (%)” value is listed as “B (“B” indicates maximum degradation ≥50%)” and the DC50 is more than 0.01 µM. In assay [1], the Dmax was more than 50% and the DC50 was more than 0.01 µM.

(Values after US20250302832A1, “PYRAZINE DERIVATIVES AND USES THEREOF” (FOGHORN THERAPEUTICS INC., priority 2022, published 2025).)
